One assay addresses D(2) dopamine receptor (Rattus norvegicus, UniProt P61169). As to the kind of experiment: Displacement of [3H]spiperone from rat dopamine D2 receptor in brain striatal membrane. The class given is cell membranes. A general note: Displacement assays read how much labelled ligand stays bound in the presence of the test substance.
Assay [1] has as its system Mus musculus. Briefly: Dopaminergic activity in CD1 mouse striatum assessed as dopamine turn over at 3.29 umol/kg, sc relative to control. Type of assay: functional.
In a further assay the target is D(3) dopamine receptor (Rattus norvegicus, UniProt P19020). As to the kind of experiment: biochemical.
Chain of D(3) dopamine receptor (P19020 whole entry): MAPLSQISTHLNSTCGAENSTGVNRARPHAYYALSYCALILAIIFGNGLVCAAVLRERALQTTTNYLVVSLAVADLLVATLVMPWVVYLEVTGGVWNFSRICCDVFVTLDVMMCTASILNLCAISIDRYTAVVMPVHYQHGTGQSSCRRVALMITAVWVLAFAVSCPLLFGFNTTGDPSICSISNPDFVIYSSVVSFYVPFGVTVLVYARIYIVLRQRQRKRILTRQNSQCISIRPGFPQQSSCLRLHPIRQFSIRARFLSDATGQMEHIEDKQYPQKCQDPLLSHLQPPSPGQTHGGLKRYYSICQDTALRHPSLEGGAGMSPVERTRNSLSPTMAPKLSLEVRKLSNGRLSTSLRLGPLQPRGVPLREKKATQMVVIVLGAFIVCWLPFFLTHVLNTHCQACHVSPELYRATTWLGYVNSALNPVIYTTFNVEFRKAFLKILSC
The subject of assay [2] is Mus musculus. As to the kind of experiment: Dopaminergic activity in CD1 mouse tuberculum olfactorium assessed as dopamine turn over at 3.29 umol/kg, sc relative to control. Type of assay: functional.

Chain of D(2) dopamine receptor (P61169 whole entry): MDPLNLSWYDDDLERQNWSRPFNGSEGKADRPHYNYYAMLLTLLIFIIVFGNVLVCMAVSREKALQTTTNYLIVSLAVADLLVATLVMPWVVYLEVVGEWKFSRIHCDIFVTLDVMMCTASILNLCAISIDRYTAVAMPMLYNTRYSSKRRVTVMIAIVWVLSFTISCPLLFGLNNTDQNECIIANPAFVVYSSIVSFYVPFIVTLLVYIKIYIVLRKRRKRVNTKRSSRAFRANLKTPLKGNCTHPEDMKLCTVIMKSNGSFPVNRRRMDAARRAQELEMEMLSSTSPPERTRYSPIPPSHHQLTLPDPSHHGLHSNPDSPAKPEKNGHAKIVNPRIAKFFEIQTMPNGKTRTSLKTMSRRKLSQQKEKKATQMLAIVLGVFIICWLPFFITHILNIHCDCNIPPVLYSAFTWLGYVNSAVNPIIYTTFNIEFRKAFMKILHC
Description for D(3) dopamine receptor: Displacement of [3H]spiperone from rat recombinant dopamine D3 receptor expressed in SF9 cells

As a reminder, the IC50 is the midpoint of a concentration-inhibition curve. In general, Ki refers to a measure of affinity in units of concentration, obtained from inhibition or displacement. High values mean weaker binding, low ones tighter binding. As for `CN(C)c1ccc(-c2cc3c4c(c2)-c2c(ccc(O)c2O)C[C@H]4N(C)CC3)cc1.Cl.Cl`, the IC50 turned out to be 484 nM at D(2) dopamine receptor and 178 nM on D(3) dopamine receptor. For the same molecule, the Ki at D(2) dopamine receptor was 242 nM; at D(3) dopamine receptor, 78.4 nM. Besides, the Activity in the assay on Mus musculus [1] stood at 52.3%; in the assay on Mus musculus [2], 84.5%.

Turning to `CN1CCc2cc(-c3ccccc3)cc3c2[C@H]1Cc1ccc(O)c(O)c1-3.Cl`, the IC50 came out at 23.3 nM on D(2) dopamine receptor and 14.7 nM against D(3) dopamine receptor. Also, the Ki was found to be 11.7 nM on D(2) dopamine receptor and 7.7 nM on D(3) dopamine receptor. Further, the Activity in the assay on Mus musculus [1] turned out to be 44.2%; in the assay with Mus musculus [2], 50.9%.

`CN1CCc2cc(-c3ccc(O)cc3)cc3c2[C@H]1Cc1ccc(O)c(O)c1-3.Cl`: the IC50 at D(2) dopamine receptor is 8.5 nM; at D(3) dopamine receptor it was 3.7 nM. The values for the Ki at D(2) dopamine receptor and at D(3) dopamine receptor were 4.14 nM and 1.78 nM, respectively. Also, the figures for the Activity with Mus musculus [1] and in the assay on Mus musculus [2] were 43.6% and 39.6%, respectively.

Take `CN1CCc2cc(-c3cccc4c3oc3ccccc34)cc3c2[C@H]1Cc1ccc(O)c(O)c1-3.Cl`: the IC50 at D(2) dopamine receptor turned out to be 3260 nM; against D(3) dopamine receptor it was 49.4 nM. In addition, the Ki stood at 1630 nM on D(2) dopamine receptor and 22.3 nM at D(3) dopamine receptor. In addition, the figures for the Activity in the assay on Mus musculus [1] and with Mus musculus [2] were 92% and 106.1%, respectively.

For the molecule `Cc1cc2c3c(c1)-c1c(ccc(O)c1O)C[C@H]3N(C)CC2.Cl`, the IC50 turned out to be 43 nM at D(2) dopamine receptor and 82.6 nM against D(3) dopamine receptor. For the same molecule, the results for the Ki on D(2) dopamine receptor and at D(3) dopamine receptor were 20.7 nM and 40.1 nM, respectively. Besides, the Activity is recorded as 42.3% in the assay on Mus musculus [1] and 43.6% in the assay on Mus musculus [2].

On to `CN1CCc2cccc3c2[C@H]1Cc1ccc(O)c(O)c1-3.CN1CCc2cccc3c2[C@H]1Cc1ccc(O)c(O)c1-3.Cl.Cl.O` [APOMORPHINE HYDROCHLORIDE], for which the values for the Activity in the assay with Mus musculus [1] and in the assay on Mus musculus [2] were 48.6% and 57.7%, respectively.
